Measured values published in article PMC3502156, “Anti-plasmodial action of de novo-designed, cationic, lysine-branched, amphipathic, helical peptides” (Malaria Journal, 2012).
Read-outs that look alike come from different tables or passages of the source. Starred links: 1 amine or outer side, 2 acyl side, 3 side chain; linkers in the order of their positions; H or OH if unused. Positions of bridges follow the written chain, without caps; N, C: chain ends. Non-standard residues stand in square brackets, D forms with d. Residues, ends and D or L forms follow the SMILES beside them. Chains are numbered I, II in the order given. X1 = O=C(/C(=C/c1ccccc1)N[*:1])[*:2]; X2 = O=C(C(=Cc1ccccc1)N[*:1])[*:2]

Key:
[1] = test system: P. falciparum 3D7 (chloroquine-sensitive); experiment: microbe, parasite or virus in culture; type: cell-based, Plasmodium falciparum
Method: (§1) Chloroquine-sensitive (3D7) and CQ-resistant (Dd2 and INDO) strains of P. falciparum were maintained in continuous culture according to the method of Trager and Jensen with minor modifications. Cultures were maintained in fresh group O^+ve human erythrocytes suspended at 4% haematocrit in complete medium {16.2 g/L RPMI 1640 containing 25 mM HEPES, 11.11 mM glucose (Gibco), 0.2% sodium bicarbonate (Sigma), 0.5% Albumax I (Gibco), 45 μg/litre hypoxanthine (Sigma) and 50 μg/litre gentamicin (Gibco)} and incubated at 37°C under a gas mixture 5% O2, 5% CO2, and 90% N2. Every day, the spent medium was replaced by fresh complete medium to propagate the culture. […] Parasitaemia was monitored by microscopic examination of Giemsa-stained blood smears. Synchronized ring stage parasite was obtained by 5% sorbitol treatment. Trophozoites and schizont-stage parasites were enriched by using Percoll gradient.
(§2) Stock solutions of peptides and CQ were prepared in water (milli-Q grade) while artemisinin stock solution was in dimethyl sulphoxide (DMSO). All stocks were then diluted with culture medium to achieve the required drug concentrations. The concentration of peptide solution in water was based on A280 [ϵ (M^-1 cm^-1) ΔF (didehydrophenylalanine) 19,000, W (Tryptophan) 5,000)]. Thus ϵ280 were 62,000, 124,000, 124,000 and 248,000 for ΔFm, (ΔFm)2, ΔFd and ΔFq respectively. The concentration of FITC-peptides was based on A495 [ϵ(M^-1 cm^-1) FITC 77,000 for (ΔFm)2 with one FITC and 154,000 for ΔFd with two FITC per molecule]. Drugs and peptides solutions were placed in 96-well flat bottom tissue culture grade plates (Corning).
(§3) For drug screening, SYBR green I based fluorescence assay was used as described previously by Smilkstein et al.[30]. Sorbitol synchronized ring stage parasites (haematocrit: 2%, parasitaemia: 1%, 100 μl) under normal culture conditions were incubated in the absence or presence of increasing concentrations of peptides in water. CQ and artemisinin were used as positive controls. […] After 48 hr of incubation 100 μl of SYBR Green I buffer [0.2 μl of 10,000 X SYBR Green I (Invitrogen) per ml of lysis buffer {Tris (20 mM; pH 7.5), EDTA (5 mM), saponin (0.008%; wt/vol), and Triton X-100 (0.08%; vol/vol)}] was added to each well, mixed twice gently with multi-channel pipette and incubated in dark at 37 °C for 1 h. Fluorescence was measured with a Victor fluorescence multi-well plate reader (Perkin Elmer) with excitation and emission wavelength centred at 485 and 530 nm, respectively. Fluorescence counts for CQ (0.1 μM for 3D7, 1 μM for INDO) were subtracted from counts in each well. The fluorescence counts were plotted against the drug concentration and IC50 (the 50% inhibitory concentration) was determined by analysis of dose–response curves. Results of the above mentioned fluorescence-based assay were validated microscopically by examination of Giemsa-stained smears of peptide-treated parasite cultures. Statistical significance of relative potencies of peptides was determined by student’s T test.

[2] = test system: P. falciparum Dd2 (CQ-resistant); experiment: microbe, parasite or virus in culture; type: cell-based, Plasmodium falciparum; conditions: for Resistance index IC50 Dd2/ IC50 3D7: IC50 CQ resistant strain/ IC50 CQ sensitive strain
Method: as §1, §2, §3

[3] = test system: uninfected erythrocytes (URBC); experiment: Haemolysis assay, uninfected red cells; type: cell-based, human
Method: (§4) Selectivity of haemolysis by peptides for infected erythrocytes (PRBC) vs uninfected erythrocytes (URBC) was examined by incubating the test molecules with URBCs and PRBCs respectively in phosphate-buffered saline (PBS). Briefly, fresh RBCs were spin washed (1600 RPM; 5 min) three times in PBS and re-suspended in PBS at 2% haematocrit. A 100 μl suspension was added to 96-well plate containing the peptides at different concentrations. […] After incubation at 37°C for 3 hr, the samples were centrifuged and supernatant was used to determine the haemolytic activity measured in terms of haemoglobin release as monitored by […]. Triton-treated control samples were diluted 10-fold before reading absorbance. […] Percent haemolysis has been expressed with reference to 100% haemolysis value assigned to positive control (triton X 100 treated RBCs). To study haemolytic susceptibility of parasitized cells, URBCs were replaced with varying percentages (10% and 20%) of mixed stage parasitized cells. […] Haemolysis of parasitized erythrocytes was also monitored microscopically by examining the Giemsa-stained smears. Parasitaemia of ΔFd treated and untreated cultures were microscopically counted for ring, trophozoite and schizont stages respectively. Susceptibility of different stages was compared with corresponding untreated control cultures.

[4] = test system: P. falciparum 3D7 (chloroquine-sensitive); experiment: microbe, parasite or virus in culture; type: cell-based, Plasmodium falciparum; remark: listed apart in the source
[5] = test system: infected erythrocytes (PRBC); experiment: Haemolysis assay, parasitized red cells; type: cell-based, Plasmodium falciparum; conditions: up to 40 μM, 3 hr, A415
Method: as §4

[6] = test system: Plasmodium-infected RBCs (PRBC); experiment: Fluorescence microscopy of FITC-peptide localization; type: cell-based, Plasmodium falciparum; conditions: 2-3 μM, 30 min, 37°C, complete medium
Method: For studying peptide localization, P. falciparum cultures were individually incubated with FITC-ΔFd (2 μM), FITC-(ΔFm)2 (2 μM) or FITC-Insulin (3 μM) a) alone and b) together with DAPI in complete medium at 37°C for 30 min and the cells were spin washed (1,600 RPM, 5 min) twice with 1 X PBS to reduce background fluorescence. The cells were smeared on a glass slide, and fluorescence was visualized by using the respective filter settings for FITC and DAPI.
For studying the selectivity and route of transport of ΔFd into the red cell-resident malaria parasite, URBC and PRBC were incubated with FITC-ΔFd (4 μM) in parallel sets at 4°C vs at room temperature (25°C) for specified times and spin washed (1,600 RPM, 2 min) with complete medium (3 X 200 μl). The cells were smeared on a glass slide and both bright field images and fluorescence images (using FITC filter) were captured at 100 X magnification using Nikon eclipse fluorescence microscope. The software Adobe Photoshop was used to overlay the fluorescence image on the bright field image.

[7] = 3D7 (chloroquine-sensitive, 48 h)
[8] = ring stage synchronized, haematocrit 2%, parasitaemia 1%, 48 hr, SYBR Green I fluorescence, ± SD of three independent observations, read-out: IC50 P. falciparum 3D7
[9] = 2% haematocrit in PBS, 37°C, 3 hr, haemoglobin release A415, 100% = 0.4% Triton X-100, ± SD of three independent observations

Row | Compound | IC50 [1, 7] [nM] | IC50 ([2]; Dd2 (CQ-resistant, 48 h)) [nM] | HC50 URBC ([3]; 3 h) [µM] | Hemolytic Selectivity index (HC50 URBC/ IC50 Pf 3D7) ([3]; 3 h) | also measured
1 | CC(=O)NCC(=O)NC(=Cc1ccccc1)C(=O)N[C@@H](CCCNC(=N)N)C(=O)N[C@@H](CCCCN)C(=O)NC(=Cc1ccccc1)C(=O)N[C@@H](Cc1c[nH]cn1)C(=O)N[C@@H](CCCCN)C(=O)NC(=Cc1ccccc1)C(=O)N[C@@H](Cc1c[nH]c2ccccc12)C(=O)N[C@@H](C)C(=O)N[C@@H](C)C(=O)NCC(=O)NC(=Cc1ccccc1)C(=O)N[C@@H](CCCNC(=N)N)C(=O)N[C@@H](CCCCN)C(=O)NC(=Cc1ccccc1)C(=O)N[C@@H](Cc1c[nH]cn1)C(=O)N[C@@H](CCCCN)C(=O)NC(=Cc1ccccc1)C(=O)N[C@@H](Cc1c[nH]c2ccccc12)C(=O)N[C@@H](C)C(N)=O [(ΔFm)2] (Ac-G[X2]RK[X2]HK[X2]WAAG[X2]RK[X2]HK[X2]WA-NH2) | 2400 ± 150 | 2500 ± 130 | > 50 | > 20 | Resistance index IC50 Dd2/ IC50 3D7 [2]: 1.04; increment in potency at 96 hr (two cycles) vs 48 hr (one cycle) ([4]; P. falciparum 3D7, SYBR Green assay): 1.5 fold
2 | CCN(CC)CCCC(C)Nc1ccnc2cc(Cl)ccc12 (stereo not drawn) [Chloroquine, reference compound] |  |  |  |  | Resistance index IC50 Dd2/ IC50 3D7 [2]: 4; IC50 ([2]; Plasmodium falciparum, DD2, 48 h, read-out: IC50 P. falciparum Dd2): 160 nM; IC50 ([4]; Plasmodium falciparum, 3D7, 48 h, read-out: IC50 P. falciparum 3D7): 40 nM
3 | CC(C)C[C@H](NC(=O)[C@H](CCC(N)=O)NC(=O)[C@@H]1CCCN1C(=O)[C@H](CC(C)C)NC(=O)[C@H](CC(=O)O)NC(=O)[C@@H](NC(=O)[C@@H](NC(=O)[C@H](Cc1c[nH]cn1)NC(=O)[C@@H]1CCCN1C(=O)[C@H](CC(C)C)NC(=O)[C@@H]1CCCN1C(=O)[C@@H]1CCCN1C(=O)[C@H](C)NC(=O)[C@H](CO)NC(=O)[C@@H]1CCCN1C(=O)[C@H](CCCNC(=N)N)NC(=O)[C@@H](NC(=O)[C@H](C)NC(=O)CNC(=O)[C@H](CC(C)C)NC(=O)[C@@H]1CCCN1C(=O)[C@H](C)NC(=O)[C@H](CO)NC(=O)[C@H](Cc1c[nH]cn1)NC(=O)[C@H](CC(=O)O)NC(=O)[C@@H]1CCCN1C(=O)[C@@H]1CCCN1C(=O)[C@@H](N)CC(N)=O)[C@@H](C)O)C(C)C)C(C)C)C(=O)NCC(=O)N1CCC[C@H]1C(=O)O [E30, reference compound] (H-NPPDHSAPLGATRPSAPPLPHVVDLPQLGP-OH) |  |  |  |  | IC50 [1, 8]: > 40000 nM; HC50 URBC [3, 9]: > 40 µM; haemolysis of infected red cells by control peptides [5]: not to show any haemolysis
4 | CC(=O)NCC(=O)N[C@@H](Cc1ccccc1)C(=O)N[C@@H](CCCNC(=N)N)C(=O)N[C@@H](CCCCN)C(=O)N[C@@H](Cc1ccccc1)C(=O)N[C@@H](Cc1c[nH]cn1)C(=O)N[C@@H](CCCCN)C(=O)N[C@@H](Cc1ccccc1)C(=O)N[C@@H](Cc1c[nH]c2ccccc12)C(=O)N[C@@H](C)C(=O)NCCCC[C@H](NC(=O)[C@H](C)NC(=O)[C@H](Cc1c[nH]c2ccccc12)NC(=O)[C@H](Cc1ccccc1)NC(=O)[C@H](CCCCN)NC(=O)[C@H](Cc1c[nH]cn1)NC(=O)[C@H](Cc1ccccc1)NC(=O)[C@H](CCCCN)NC(=O)[C@H](CCCNC(=N)N)NC(=O)[C@H](Cc1ccccc1)NC(=O)CNC(C)=O)C(N)=O [Fd] (I: Ac-GFRKFHKFWAK-NH2 / II: Ac-GFRKFHKFWA; amide I:11-II:C; N-terminus and C-terminus assumed) | 1500 ± 80 |  | > 50 | > 33 | 
5 | CC(=O)NCC(=O)N[C@@H](Cc1ccccc1)C(=O)N[C@@H](CCCNC(=N)N)C(=O)N[C@@H](CCCCN)C(=O)N[C@@H](Cc1ccccc1)C(=O)N[C@@H](Cc1c[nH]cn1)C(=O)N[C@@H](CCCCN)C(=O)N[C@@H](Cc1ccccc1)C(=O)N[C@@H](Cc1c[nH]c2ccccc12)C(=O)N[C@@H](C)C(N)=O [Fm] (Ac-GFRKFHKFWA-NH2) | > 100000 | > 100000 | >100 |  | 
6 | C[C@H](NC(=O)[C@H](C)NC(=O)[C@H](CCCCN)NC(=O)[C@H](Cc1c[nH]cn1)NC(=O)[C@@H]1CCCN1C(=O)[C@H](CCC(=O)O)NC(=O)[C@@H](N)CCC(=O)O)C(=O)N[C@@H](CO)C(=O)N[C@@H](C)C(=O)N[C@@H](CCC(=O)O)C(=O)NCC(=O)N[C@@H](CCCCN)C(=O)N[C@@H](CCCCN)C(=O)O [Prochitinase, reference compound] (H-EEPHKAASAEGKK-OH) | > 40000 |  | > 40 |  | 
7 | CC(=O)NCC(=O)NC(=Cc1ccccc1)C(=O)N[C@@H](CCCNC(=N)N)C(=O)N[C@@H](CCCCN)C(=O)NC(=Cc1ccccc1)C(=O)N[C@@H](Cc1c[nH]cn1)C(=O)N[C@@H](CCCCN)C(=O)NC(=Cc1ccccc1)C(=O)N[C@@H](Cc1c[nH]c2ccccc12)C(=O)N[C@@H](C)C(N)=O [ΔFm] (Ac-G[X2]RK[X2]HK[X2]WA-NH2) | > 100000 | > 100000 | >100 |  | 
8 | FITC-insulin: FITC-Insulin (Sigma), control for uptake |  |  |  |  | uptake of FITC-labelled peptide by parasitized cells [6]: no accumulation
9 | I: Ac-G[X1]RK[X1]HK[X1]WAKK-NH2 / II: Ac-G[X1]RK[X1]HK[X1]WAK / III: Ac-G[X1]RK[X1]HK[X1]WA / IV: Ac-G[X1]RK[X1]HK[X1]WA (amide I:11-IV:C, I:12-II:C, II:11-III:C; N-terminus and C-terminus assumed) [ΔFq] | 250 ± 20 |  | 2.5 ± 0.13 | 10 | 
10 | Insulin: bovine insulin (Sigma), control peptide [reference compound] |  |  |  |  | IC50 [1, 8]: > 40000 nM; HC50 URBC [3, 9]: > 40 µM; haemolysis of infected red cells by control peptides [5]: not to show any haemolysis
